These are literature values, as cited in publication PMC6843445, “Pharmacokinetic Properties of Fluorescently Labelled Hydroxypropyl-Beta-Cyclodextrin” (Biomolecules, 2019).

On the set-up of data set [1]: method as in PMID 30521943. As to conditions: after 30 min; ref [21]; cited from earlier work.
Details of data set [2]: method as in PMID 22552390. As to conditions: rats, subcutaneous long-term, daily dose of 200 mg/kg; ref [8]; cited from earlier work.
On the set-up of data set [3]: method as in ref [4] = [4]; PMID 16018907; doi:10.1016/j.fct.2005.03.007; 4. Gould S. Scott R.C. 2-Hydroxypropyl-beta-cyclodextrin (HP-b-CD): A toxicology review Food Chem. Toxicol. 2005 43 1451 1459 10.1016/j.fct.2005.03.007 16018907. As to conditions: rats; ref [4]; cited from earlier work.
On the set-up of data set [4]: method as in ref [4],[27] = [4]; PMID 16018907; doi:10.1016/j.fct.2005.03.007; 4. Gould S. Scott R.C. 2-Hydroxypropyl-beta-cyclodextrin (HP-b-CD): A toxicology review Food Chem. Toxicol. 2005 43 1451 1459 10.1016/j.fct.2005.03.007 16018907 || [27]; 27. Committee for Human Medicinal Products (CHMP), European Medicines Agency Cyclodextrins Used as Excipients. EMA/CHMP/333892/2013 9 10 2017 Available online: http://www.ema.europa.eu/docs/en_GB/docu. As to conditions: rats; ref [4],[27]; cited from earlier work.

Details of data set [5]: method as in PMID 23611577. As to conditions: pigs, 2 week 0.25–0.5 g/kg/infusion; ref [9]; cited from earlier work.
Details of data set [6]: method as in PMID 28803710. As to conditions: patients with NPC1, lumbar intrathecal; ref [2]; cited from earlier work.
Another data set has as its system Caco-2 cells. On the set-up: method as in PMID 27317368, PMID 20434542. As to conditions: HPBCD with different DS; ref [6],[7]; cited from earlier work.
Details of data set [7]: method as in PMID 27317368, PMID 20434542. As to conditions: HPBCD with different DS; ref [6],[7]; cited from earlier work.
On the set-up of data set [8]: method as in ref [4] = [4]; PMID 16018907; doi:10.1016/j.fct.2005.03.007; 4. Gould S. Scott R.C. 2-Hydroxypropyl-beta-cyclodextrin (HP-b-CD): A toxicology review Food Chem. Toxicol. 2005 43 1451 1459 10.1016/j.fct.2005.03.007 16018907. As to conditions: rats, 4–7 days 225 mg/kg/day i.v.; ref [4]; cited from earlier work.
On the set-up of data set [9]: method as in ref [4] = [4]; PMID 16018907; doi:10.1016/j.fct.2005.03.007; 4. Gould S. Scott R.C. 2-Hydroxypropyl-beta-cyclodextrin (HP-b-CD): A toxicology review Food Chem. Toxicol. 2005 43 1451 1459 10.1016/j.fct.2005.03.007 16018907. As to conditions: dogs; ref [4]; cited from earlier work.

Where two headings read alike, the source gives them in different places.

Regarding “^68Ga-labeled NODAGA-hydroxypropyl-beta-cyclodextrin [^68Ga-NODAGA-HPBCD]”, in data set [1], the “activity in the lung compared to other organs” value is on record as “relatively higher”.
As for `CC(O)COC[C@H]1O[C@@H]2O[C@H]3[C@H](O)[C@@H](O)[C@@H](O[C@H]4[C@H](O)[C@@H](O)[C@@H](O[C@H]5[C@H](O)[C@@H](O)[C@@H](O[C@H]6[C@H](O)[C@@H](O)[C@@H](O[C@H]7[C@H](O)[C@@H](O)[C@@H](O[C@H]8[C@H](O)[C@@H](O)[C@@H](O[C@H]1[C@H](O)[C@H]2O)O[C@@H]8COCC(C)O)O[C@@H]7COCC(C)O)O[C@@H]6COCC(C)O)O[C@@H]5COCC(C)O)O[C@@H]4COCC(C)O)O[C@@H]3COCC(C)O` (stereo partly drawn) [HPBCD, 2-Hydroxypropyl-beta-cyclodextrin], the bone effect entry in [2] is on record as “caused bone loss”. The “organs with the highest HPBCD concentrations” value in data set [3] was “kidneys and lung”; in data set [9] it was “kidneys and liver”. The “no observed adverse effect levels (NOAELs)” value in [4] is 50 mg/kg/day. Besides, the figures for the lung findings result in data set [5] and in [8] were “inflammatory changes in the lung” and “foamy macrophage infiltration of the lung”, respectively. In data set [6], the disease progression result is recorded as “slowed disease progression”. The “cytotoxicity on Caco-2 cells” value in the data set on Caco-2 cells is reported as “no toxicity”. The hemolytic activity result in [7] was “low hemolytic activity”.
